From patent US20230348450A1, “CARBOXYLIC ACID-CONTAINING COMPOUNDS AS MODULATORS OF BIS-PHOSPHOGLYCERATE MUTASE FOR THE TREATMENT OF SICKLE CELL DISEASE” (Genzyme Corporation, priority 2020, published 2023)

Key:
human red blood cells = test: Human Cell-Based Assay; conditions: Erythrocyte; human whole blood suspension, 37° C., 24 h; metabolites (2,3-BPG, ATP) by LC/MS; read-out: hRBC EC50
Method: Example B3. Human Cell-Based Assay
The following materials were used in this assay: DMSO; Hemox buffer (30 mM TES, 135 mM NaCl, 5 mM KCl, pH 7.4); Inosine (100 mM in hemox buffer); Glucose (1 M in water); human red blood cells; LC/MS Optima grade methanol; LC/MS Optima grade water; and Incubation buffer (30 mM TES, 135 mM NaCl, 5 mM KCl, 50 mM inosine, 20 mM glucose pH 7.4).
Test compounds were loaded onto a 96-well plate (final concentration of DMSO was 1%). 10 mL whole blood was resuspended with an equivalent amount of 2× incubation buffer to make 25% het & 50% plasma solution. The final solution contains 10 mM glucose and 25 mM inosine. The blood suspension (100 uL) was added to the wells of the plate. The plate was covered with an adhesive foil cover and plastic lid, and incubated at 37° C. for 24 h. The samples were extracted through an SPE column and the metabolites (2,3-BPG, ATP) were analyzed by LC/MS.

hBPGM = hBPGM (Homo sapiens (Human), UniProt P07738); test: BPGM Synthase Assay; format: biochemical; conditions: Table 6 additional results; read-out: huBPGM: synthase Enzyme IC50
hBPGM, sequence (P07738 whole entry, looked up): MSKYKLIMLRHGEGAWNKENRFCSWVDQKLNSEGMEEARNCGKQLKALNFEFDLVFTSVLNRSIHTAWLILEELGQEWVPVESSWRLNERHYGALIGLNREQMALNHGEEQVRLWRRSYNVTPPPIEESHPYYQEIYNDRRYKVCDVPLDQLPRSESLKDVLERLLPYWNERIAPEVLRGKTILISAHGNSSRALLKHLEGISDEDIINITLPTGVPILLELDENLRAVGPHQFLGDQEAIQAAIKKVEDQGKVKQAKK
How it was run: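 BPGM (5 nM) with GAPDH (0.4 U/mL) was incubated with compound for 30 min at RT in pH 7.4 Tris buffer with 3.23 mM KH2PO4 and 1 mM DTT. Reaction ran 60 min with NAD, 3PG and GAP (substrate solution 2 mM, 20 μM and 800 μM). After koningic acid stop, NADH fluorescence was read, then resorufin from diaphorase/resazurin coupling.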

[1] = target: human Bisphosphoglycerate mutase (hBPGM) (Homo sapiens (Human), UniProt P07738); test: BPGM Phosphatase Assay; format: biochemical; conditions: Table 6 additional results; read-out: huBPGM: phosphatase Enzyme EC50
human Bisphosphoglycerate mutase (hBPGM), sequence (P07738 whole entry): as the sequence (P07738 whole entry, looked up) above
Method: Solutions of the test compounds were then added to the plate and the DMSO content was normalized across the plate. The plate was incubated at RT for 15 min. Next, the substrate 2,3-BPG (5 μL) was added to all the wells, and the plate was sealed and incubated for 24 hr at RT. After incubation, BIOMOL green dye (40 μL) was added to all the wells, the plate was shaken to mix, and the plate was incubated at RT for 20-30 min.

| Structure (SMILES) | EC50 (human red blood cells) [nM] | IC50 (hBPGM) [nM] | EC50 [1] [nM] |
| --- | --- | --- | --- |
| Cc1nc(COc2ccccn2)sc1-c1cccc(-c2ccc(C(=O)O)c(O)c2)c1 [compound 4, 2-hydroxy-4-[3-[4-methyl-2-(2-pyridyloxymethyl)thiazol-5-yl]phenyl]benzoic Acid] | 23500 |  |  |
| Cc1nc(COc2ncccn2)sc1-c1cccc(-c2ccc(S(=O)(=O)CC(=O)O)cc2)n1 [compound 2, 2-[4-[6-[4-methyl-2-(pyrimidin-2-yloxymethyl)thiazol-5-yl]-2-pyridyl]phenyl]sulfonylacetic Acid] | > 100000 |  |  |
| COCCNCc1nc(C)c(-c2csc(-c3cc(O)c(C(=O)O)cc3F)n2)s1 [Example 175] |  | 520 | 320 |
| Cc1nc(CNC(=O)C2CCN(C)C2)sc1-c1csc(-c2cc(O)c(C(=O)O)cc2F)n1 (stereo not drawn) [Example 127] |  | 490 | 420 |
| COC(=O)NCc1nc(C)c(-c2cc(-c3cc(O)c(C(=O)O)cc3F)sn2)s1 [Example 168] |  | 370 | 530 |
| Cc1nc(CNC2CCOCC2)sc1-c1cccc(-c2ccc(C(=O)O)cc2)c1 [Example 51] |  | 21000 | 4300 |
| Cc1nc(Cc2cccnc2)sc1-c1cccc(-c2ccc(C(=O)O)cc2)c1 [Example 277] |  | 860 | 1100 |
